Experimental data reported in patent publication US9597337B2, “Berberine-ursodeoxycholic acid conjugate for treating the liver” (NORTH AMERICAN BIOMEDICAL RESEARCH CENTER USA, INC., priority 2014, dated 2017).
Where two headings read alike, the source gives them in different places.

What was measured:
[1] = system: MDA231; assay: CCK-8 cell viability assay, MDA231; type: cell-based; conditions: Homo sapiens, MDA-MB-231, MDA231, 48 hour period
Description: (§1) To obtain the data in FIG. 2, Cell Counting Kit-8 (CCK-8) was used. CCK-8 is commercially available from Dojindo Molecular Technologies, Inc. CCK-8 allows sensitive colorimetric assays for the determination of cell viability in cell proliferation and cytotoxicity assays. Dojindo's highly water-soluble tetrazolium salt, used in CCK-8, is reduced by dehydrogenase activities in cells to give a yellow-color formazan dye, which is soluble in the tissue culture media. The amount of the formazan dye, generated by the activities of dehydrogenases in cells, is directly proportional to the number of living cells. The detection sensitivity of CCK-8 may be higher than the other tetrazolium salts such as MTT, XTT, MTS or WST-1. Cancerous cells in a cell culture were exposed to the either irinotecan, ursodeoxycholic acid, berberine, or NABR01, and the results were recorded. Various concentrations of each molecule were used, resulting in different amount of cell viability. Cell viability was measured according to the procedures of CCK-8, namely higher cell counts lead to higher absorption measurements, which would mean lower drug efficacy.
(§2) As shown in FIGS. 19-20, the efficacy of NABR01 can vary greatly depending on the cancerous cell line, and as a result, NABR01 may not be effective against certain cell lines. […]

[2] = system: PC3; assay: CCK-8 cell viability assay, PC3; type: cell-based; conditions: Homo sapiens, PC-3, PC3, 48 hour period
Description: as §1, §2

[3] = system: MDA468; assay: CCK-8 cell viability assay, MDA468; type: cell-based; conditions: MDA468, 48 hour period
Description: as §1
(§3) DLD1 refers to Dukes' type C, colorectal adenocarcinoma, and NABR01 has an IC50 of 5.0 uM for DLD1. HCT2 refers to a hamster lymphoid cell line, and NABR01 has an IC50 of 6.0 uM for HCT2. […]

[4] = system: CCA; assay: CCK-8 cell viability assay, CCA; type: cell-based; conditions: 48 hour period
Description: as §1, §3

[5] = system: U2OS; assay: CCK-8 cell viability assay, U2OS; type: cell-based; conditions: Homo sapiens, 48 hour period
Description: as §1, §3

[6] = system: HuCCT; assay: CCK-8 cell viability assay, HuCCT; type: cell-based; conditions: 48 hour period
Description: as §1, §2

[7] = system: KMCH cells; assay: CCK-8 cell viability assay in KMCH cells; type: cell-based
Description: (§4) FIG. 2 is a set of graphs showing the ability of various molecules to kill KMCH and GS-Li013 cells, which are cholangiocarcinoma cells. The data presented in FIG. 2 is based on in-vtro studies. The y-axis of each graph represents the Cell viability percentage 205 of KMCH and GS-Li013 cells. The x-axis of each graph represents the Log[C]210. [C] refers to the concentration of the molecule tested in uM. IC50 commonly refers to the half maximal inhibitory concentration, and is used to numerically represent the efficacy of various molecules to be effective in their respective tasks. In this case, IC50 means the concentration at which half of the target cells are no longer viable. […] The unit uM is used to represent the IC50 value. uM is the same as micro molar concentration, which is 10^−6 moles/liter, a common concentration unit.
as §1
DLD1 refers to Dukes' type C, colorectal adenocarcinoma, and NABR01 has an IC50 of 5.0 uM for DLD1. HCT2 refers to a hamster lymphoid cell line, and NABR01 has an IC50 of 6.0 uM for HCT2. […] NABR01 has an unexpectedly effective IC50 of less than 10 uM for the cell lines described above, and the related cancers.

[8] = system: DLD1; assay: CCK-8 cell viability assay, DLD1; type: cell-based; conditions: Homo sapiens, DLD-1, DLD1, 48 hour period
Description: as §1, §3

[9] = system: GS-Li013 cells; assay: CCK-8 cell viability assay in GS-Li013 cells; type: cell-based; conditions: GS-Li013 (GS-cell lines), 24 hour treatment
Description: as §4, §1

[10] = system: HCT2; assay: CCK-8 cell viability assay, HCT2; type: cell-based, hamster; conditions: Mesocricetus auratus, HCT2, 48 hour period
Description: as §1, §3

[11] = system: KMCH cells; assay: Western blot analysis of signaling and apoptosis proteins in KMCH cells; type: cell-based; conditions: for cytochrome C release from mitochondria, western blot: berberine at same concentration as NABR01
Method: FIGS. 6-18 is data which illustrates the mechanism of action for NABR01. Once a mechanism of action is known, it may become possible to predict with some level of accuracy the effects a drug may have, though extensive testing would still be required. Until a mechanism is known, it is extremely difficult to predict what a particular molecule or compound may be useful for, if it is even useful at all. A western blot analysis was performed for MAP kinase signaling proteins, phospho p38, phospho JNK and phospho ERK in KMCH cells with and without NABR01 treatment.
The cytotoxic effect of NABR01 in addition to downregulation of Bcl2, may be attributed to an increase in proapoptotic protein Bim which is specifically cleaved to generate the cytotoxic Bims-form in KMCH cells are treated with NABR01. Caspase-9 is cleaved in cells treated with NABR01 indicating an upstream activation of Caspase 3. […] Accordingly, not only does the ursodiol component of NABR01 assist in targeting, but ursodiol also increases efficacy of the compound when introduced directly to the relevant cells, a wholly unexpected effect.
The activity of pro-inflammatory signaling pathway protein phospho STAT may also increase in NABR01 treated cells.

[12] = system: HCT; assay: CCK-8 cell viability assay, HCT; type: cell-based; conditions: 48 hour period
Description: as §1, §3

[13] = system: HT29; assay: CCK-8 cell viability assay, HT29; type: cell-based; conditions: Homo sapiens, HT-29, HT29, 48 hour period
Description: as §1, §3

[14] = system: MCF7; assay: CCK-8 cell viability assay, MCF7; type: cell-based; conditions: Homo sapiens, MCF7, 48 hour period
Description: as §1, §3

[15] = system: HepG2; assay: CCK-8 cell viability assay, HepG2; type: cell-based; conditions: Homo sapiens, HepG2, 48 hour period
Description: as §1, §3

[16] = system: KMCH tumor; assay: Tumor xenograft study in mice; type: in vivo
Description: Tumor xenografts studies in mice indicate that the tumor growth corresponding to weight and volume in NABR01 treated group of mice was reduced by approximately 45% in size when treated for 21 days.

[17] = system: PANC1; assay: CCK-8 cell viability assay, PANC1; type: cell-based; conditions: Homo sapiens, PANC-1, PANC1, 48 hour period
Description: as §1, §3

[18] = system: SJSA; assay: CCK-8 cell viability assay, SJSA; type: cell-based; conditions: 48 hour period
Description: as §1, §2

[19] = KMCH cells, 24 hour treatment, read-out: IC50 (cell viability)

SMILES: COc1ccc2cc3[n+](cc2c1OCCCCCCNC(=O)CC[C@@H](C)[C@H]1CC[C@H]2[C@@H]4[C@@H](O)CC5CC(O)CC[C@]5(C)[C@H]4CC[C@]12C)CCc1cc2c(cc1-3)OCO2 (stereo in doubt) [NABR01, berberine-ursodeoxycholic acid conjugate]
- IC50 [1]: 36 µM
- IC50 [2]: 16 µM
- IC50 [3]: 2.1 µM
- IC50 [4]: 4.8 µM
- IC50 [5]: 4.3 µM
- IC50 [6]: 15 µM
- IC50 [7, 19]: 15 µM
- IC50 ([7]; KMCH, 48 hour period, read-out: IC50): 2.9 µM
- IC50 [8]: 5 µM
- IC50 [9]: 15 µM
- IC50 [10]: 6 µM
- phospho PTEN, western blot [11]: remain unchanged
- pro-apoptotic protein Noxa [11]: increase
- PARP activation by cleavage, western blot ([11]; 10 uM): activated
- anti-apoptotic protein Bcl2, western blot ([11]; 10 uM): down regulated
- phospho ERK (cell survival pathway), western blot ([11]; 10 uM): downregulated
- phospho JNK (cell death signaling pathway), western blot ([11]; 10 uM): increased
- phospho p38 (cell death signaling pathway), western blot ([11]; 10 uM): increased
- AKT signaling pathway, western blot ([11]; 10 uM, 16 hours): downregulated
- phosphor-AKT pathway, western blot ([11]; 10 uM, 16 hours): downregulated
- proapoptotic protein Bim (cleaved to Bims-form), western blot ([11]; 10 uM, 24 hours): increase
- Caspase-9 cleavage, western blot ([11]; 10 uM, 48 hours): cleaved
- Phospho CKH2 (DNA repair), western blot ([11]; 16 hours): increased activity
- Total P53 levels, western blot ([11]; 16 hours): downregulated
- phospho STAT (pro-inflammatory signaling), western blot ([11]; 16 hours): increase
- phosphoATM (DNA repair), western blot ([11]; 16 hours): increased activity
- phospho 4EBP1, western blot ([11]; 24 hours): not significantly altered
- phospho EF2k, western blot ([11]; 24 hours): not significantly altered
- phospho eIF4E, western blot ([11]; 24 hours): not significantly altered
- phospho p70S6 kinase, western blot ([11]; 24 hours): not significantly altered
- phosphor mTOR 52481 pathway, western blot ([11]; 24 hours): downregulated
- cytochrome C release from mitochondria, western blot [11]: released from mitochondria
- Bcl2 protein levels ([11]; by 24hrs of exposure): significant decrease
- IC50 [12]: 3.9 µM
- IC50 [13]: 5.2 µM
- IC50 [14]: 9.2 µM
- IC50 [15]: 5.4 µM
- tumor weight inhibition ([16]; mice with a KMCH tumor, 4 mg/kg): 43.46%
- tumor growth (weight and volume) reduction in size ([16]; mice, tumor xenografts, treated for 21 days): approximately 45%
- IC50 [17]: 3.3 µM
- IC50 [18]: 14 µM

SMILES: COc1ccc2cc3[n+](cc2c1OC)CCc1cc2c(cc1-3)OCO2 [berberine]
- IC50 [7, 19]: 200 µM
- IC50 [9]: 200 µM
- phospho ERK (cell survival pathway), western blot ([11]; 10 uM): not observed
- phospho JNK (cell death signaling pathway), western blot ([11]; 10 uM): not observed
- phospho p38 (cell death signaling pathway), western blot ([11]; 10 uM): not observed
- cytochrome C release from mitochondria, western blot [11]: did not result in the release

SMILES: C[C@H](CCC(=O)O)[C@H]1CC[C@H]2[C@@H]3[C@@H](O)C[C@@H]4C[C@H](O)CC[C@]4(C)[C@H]3CC[C@]12C [ursodeoxycholic acid]
- IC50 (cell viability) ([7]; KMCH cells, 24 hour treatment): no IC50
- IC50 (cell viability) [9]: no IC50

SMILES: CCc1c2c(nc3ccc(OC(=O)N4CCC(N5CCCCC5)CC4)cc13)-c1cc3c(c(=O)n1C2)COC(=O)[C@]3(O)CC [irinotecan]
- IC50 [7, 19]: 95 µM
- IC50 [9]: 90 µM
